Data taken from article PMC3361971 (Journal of Natural Products, 2012).
In brackets after ≈: the same amount, converted by molar mass.

Assays:
[1] = test system: Plasmodium falciparum W2 (chloroquine resistant) strain; assay: Antiplasmodial assay, chloroquine-resistant; format: cell-based; details: selectivity index = IC50 for cytotoxicity (Vero)/IC50 for antiplasmodial activity
[2] = test system: Plasmodium falciparum D6 (chloroquine sensitive) strain; assay: Antiplasmodial assay, chloroquine-sensitive; format: cell-based; details: selectivity index = IC50 for cytotoxicity (Vero)/IC50 for antiplasmodial activity
[3] = test system: Staphylococcus aureus ATCC 29213; assay: Antimicrobial assay, methicillin-sensitive Staph. aureus; format: cell-based; details: ATCC29213
[4] = test system: lettuce (Lactuca sativa cv. L., Iceberg); assay: Phytotoxicity assay, lettuce; details: 1 mg/mL; visual ranking on scale of 0 to 5; in the presence of light
[5] = test system: methicillin-resistant Staphylococcus aureus ATCC 33591 (MRSA); assay: Antimicrobial assay, methicillin-resistant Staph. aureus; format: cell-based; details: ATCC33591|MRSA
[6] = test system: bentgrass (Agrostis stolonifera); assay: Phytotoxicity assay, bentgrass; details: 1 mg/mL; visual ranking on scale of 0 to 5; in the presence of light
[7] = test system: Vero cells (kidney fibroblast); assay: Cytotoxicity to Vero cells; format: cell-based
[8] = test system: Leishmania donovani promastigotes; assay: Antileishmanial assay; format: cell-based; details: read-out: Antileishmanial activity IC90

CC[C@@H](C)[C@H]1O[C@@H](c2c(OC)c(-c3ccccc3)c[n+]([O-])c2OC)[C@H](C)C[C@@H]1C [Compound 10c]
Chloroquine-resistant (W2)-clone S. I. [1]: >1.2 | Chloroquine-sensitive (D6)-clone S.I. [2]: >1.1

COc1c(C[C@@H](C)O)c2c3c(C[C@@H](C)O)c(OC)c(=O)c4c(O)cc5c(c6c(cc(O)c(c1=O)c62)OCO5)c43 [Compound 5, (+)-cercosporin]
MIC [3]: 2.5 ng/mL (≈ 4.68 nM) | Phytotoxic activity ranking, lettuce [4]: 3 | MIC [5]: 5 ng/mL (≈ 9.35 nM) | Phytotoxic activity ranking, bentgrass [6]: 2

13-(R)-hydroxy-N-(O-methyl)septoriamycin A [Compound 4]
Cytotoxicity to Vero cells IC50 [7]: no antimicrobial, antifungal, antiprotozoal, phytotoxic, or cytotoxic activity

COc1c(C[C@@H](C)OC(C)=O)c2c3c(C[C@@H](C)OC(C)=O)c(OC)c(=O)c4c(O)cc5c(c6c(cc(O)c(c1=O)c62)OCO5)c43 [Compound 7, (+)-di-O-acetylcercosporin]
Phytotoxic activity ranking, lettuce [4]: 3 | Phytotoxic activity ranking, bentgrass [6]: 4

COc1c(C[C@@H](C)OC(C)=O)c2c3c(C[C@@H](C)O)c(OC)c(=O)c4c(O)cc5c(c6c(cc(O)c(c1=O)c62)OCO5)c43 [Compound 6, (+)-14-O-acetylcercosporin]
Phytotoxic activity ranking, lettuce [4]: 2 | Phytotoxic activity ranking, bentgrass [6]: 4 | IC90 [8]: 8.5 µM
